Experimental data taken from article PMC3914206.

Columns and labels:
panel of 442 kinases [1] = target: T1, panel of 442 kinases (Homo sapiens, UniProt P54762); type: binding; details: Compound Concentration 10 µM
T1 construct: purchased KINOMEscan
T1 sequence (P54762 18-984): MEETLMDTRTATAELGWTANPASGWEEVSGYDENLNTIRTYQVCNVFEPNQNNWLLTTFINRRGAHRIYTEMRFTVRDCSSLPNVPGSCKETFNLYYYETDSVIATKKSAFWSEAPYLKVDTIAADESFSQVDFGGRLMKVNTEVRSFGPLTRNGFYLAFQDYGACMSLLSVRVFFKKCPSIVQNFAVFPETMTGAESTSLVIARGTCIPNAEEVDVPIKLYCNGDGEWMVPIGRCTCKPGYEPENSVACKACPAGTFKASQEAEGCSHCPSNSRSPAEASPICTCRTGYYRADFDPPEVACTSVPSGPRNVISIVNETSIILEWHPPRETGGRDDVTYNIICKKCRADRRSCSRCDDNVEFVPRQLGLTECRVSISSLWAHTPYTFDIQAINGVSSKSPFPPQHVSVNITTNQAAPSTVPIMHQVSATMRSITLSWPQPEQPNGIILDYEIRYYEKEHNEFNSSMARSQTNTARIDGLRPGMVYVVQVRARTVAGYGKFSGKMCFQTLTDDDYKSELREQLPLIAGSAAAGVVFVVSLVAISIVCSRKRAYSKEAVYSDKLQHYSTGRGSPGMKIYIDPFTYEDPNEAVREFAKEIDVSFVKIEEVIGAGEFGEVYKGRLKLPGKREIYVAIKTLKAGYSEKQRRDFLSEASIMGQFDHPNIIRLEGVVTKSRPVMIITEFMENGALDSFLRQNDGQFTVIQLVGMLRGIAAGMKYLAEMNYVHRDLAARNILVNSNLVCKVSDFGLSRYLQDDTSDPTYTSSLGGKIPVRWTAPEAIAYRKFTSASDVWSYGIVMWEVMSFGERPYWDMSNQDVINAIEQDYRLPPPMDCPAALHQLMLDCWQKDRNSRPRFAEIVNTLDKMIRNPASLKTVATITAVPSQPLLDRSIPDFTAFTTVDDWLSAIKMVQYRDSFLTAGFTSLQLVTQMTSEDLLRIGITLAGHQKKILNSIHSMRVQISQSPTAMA
From the text: (§1) We assessed the selectivity of members of this scaffold using the KINOMEscan methodology across a near comprehensive panel of 442 kinases [[18,27]].

panel of 442 kinases [2] = target: T2, panel of 442 kinases (Homo sapiens, UniProt Q92772); type: binding; details: Compound Concentration 10 µM
T2 construct: purchased KINOMEscan
T2 sequence (Q92772 1-493): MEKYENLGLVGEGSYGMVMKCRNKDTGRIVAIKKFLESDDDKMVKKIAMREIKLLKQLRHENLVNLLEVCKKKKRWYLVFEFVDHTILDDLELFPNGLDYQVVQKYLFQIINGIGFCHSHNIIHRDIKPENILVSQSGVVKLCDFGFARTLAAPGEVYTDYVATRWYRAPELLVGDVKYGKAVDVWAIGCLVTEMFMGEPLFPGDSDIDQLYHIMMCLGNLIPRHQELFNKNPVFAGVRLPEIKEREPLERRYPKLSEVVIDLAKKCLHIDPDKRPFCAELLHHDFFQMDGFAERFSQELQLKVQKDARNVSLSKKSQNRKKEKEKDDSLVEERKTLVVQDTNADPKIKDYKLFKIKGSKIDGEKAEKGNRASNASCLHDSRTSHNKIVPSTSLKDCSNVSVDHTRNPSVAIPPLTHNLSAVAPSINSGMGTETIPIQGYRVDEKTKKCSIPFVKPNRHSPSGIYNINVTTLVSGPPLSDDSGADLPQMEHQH
From the text: as §1

SMILES | KINOMEscan: EPHB1 (panel of 442 kinases [1]) | KINOMEscan: CDKL2 (panel of 442 kinases [2])
COc1cc(C(=O)N2CCC(N3CCN(C)CC3)CC2)ccc1Nc1ncc2c(n1)N(C)c1ccccc1C(=O)N2C [15 (LRRK2-IN-1)] | 98 | 100
COc1cc(C(=O)N2CCC(N3CCN(C)CC3)CC2)ccc1Nc1ncc2c(n1)N(C1CCCC1)c1ccccc1C(=O)N2C [Compound 25, 11-cyclopentyl-2-((2-methoxy-4-(4-(4-methylpiperazin-1-yl)piperidine-1-carbonyl)phenyl)amino)-5-methyl-5H-benzo[e]pyrimido[5,4-b][1,4]diazepin-6(11H)-one] | 95 | 95
CCOc1cc(C(=O)N2CCC(N3CCN(C)CC3)CC2)ccc1Nc1ncc2c(n1)N(C1CCCC1)c1ccccc1C(=O)N2C [Compound 26] | 95 | 99
